What follows are molecules tested against T1, HCV NS3 helicase (Hepatitis C virus genotype 1b, UniProt P26663) (assay: HCV Helicase Prompt FRET Assay (Example A)). Details: HCV NS3 helicase; tables do not say whether Example A or Example B assay; read-out: IC50 Activity.
T1 construct: full-length NS3 (1-631), purified at Array BioPharma
Assay type: biochemical
Method in brief: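 Full-length NS3 (1-631), 5 or 6 nM, preincubated 5 min with compound, then unwinds 50 nM FAM/BHQ-1 duplex substrate with 250 nM capture strand and 300 μM ATP in 25 mM MOPS pH 7.0, 1.5 mM MgCl2, 0.005% Triton X-100, 2% DMSO. Fluorescence (485/535 nm) followed ~30 min at room temperature; IC50 from initial rates by 4- or 5-parameter fit.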

T1 sequence (P26663 1027-1657): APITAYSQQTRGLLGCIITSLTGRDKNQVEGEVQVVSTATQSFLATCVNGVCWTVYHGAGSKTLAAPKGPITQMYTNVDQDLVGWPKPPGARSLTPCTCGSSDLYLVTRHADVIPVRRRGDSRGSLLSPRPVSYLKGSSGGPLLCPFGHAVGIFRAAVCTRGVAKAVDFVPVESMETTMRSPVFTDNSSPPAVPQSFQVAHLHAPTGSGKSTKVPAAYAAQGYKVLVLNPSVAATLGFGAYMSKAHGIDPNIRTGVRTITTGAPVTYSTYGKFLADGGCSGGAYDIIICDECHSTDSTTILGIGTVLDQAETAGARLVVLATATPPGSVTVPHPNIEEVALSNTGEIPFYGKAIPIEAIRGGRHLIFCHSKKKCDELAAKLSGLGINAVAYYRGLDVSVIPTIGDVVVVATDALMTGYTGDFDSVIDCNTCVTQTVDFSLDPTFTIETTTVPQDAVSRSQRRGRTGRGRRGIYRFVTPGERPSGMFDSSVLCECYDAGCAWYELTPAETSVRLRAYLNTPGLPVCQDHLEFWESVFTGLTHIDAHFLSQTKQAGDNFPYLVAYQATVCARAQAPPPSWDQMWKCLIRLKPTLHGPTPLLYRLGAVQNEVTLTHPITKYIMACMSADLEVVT

IC50 | Compound
10 to 50 µM | O=C(O)Cc1c(C(=O)c2ccc(Br)cc2)n(Cc2ccccc2)c2ccccc12 [Example 248]
< 10 µM | O=C(O)Cc1c(C(=O)c2cccc(-c3ccc(Cl)c(Cl)c3)c2)[nH]c2ccccc12 [Example 240]
< 10 µM | O=C(O)Cc1c(C(=O)c2cccc(-c3cccc(Cl)c3Cl)c2)[nH]c2ccccc12 [Example 230]
< 10 µM | O=C(O)Cc1cn(Cc2cccc(-c3cccc(Cl)c3)c2)c2ccc(OCc3ccccc3)cc12 [Example 129]
10 to 50 µM | O=C(O)Cc1cn(-c2ccc3sccc3c2)c2ccccc12 [Example 147]
10 to 50 µM | CCOC(=O)Cc1cn(Cc2ccc(Oc3ccc(C(F)(F)F)cc3)cc2)c2ccccc12 [Example 516]
> 50 µM | CCN(CC)C(=O)C(=O)c1cn(-c2ccc([N+](=O)[O-])cc2C)c2ccc(Br)cc12 [Example 385]
< 10 µM | O=C(O)Cc1cn(-c2ccc(-c3cc(Cl)cc(Cl)c3)cc2)c2ccccc12 [Example 151]
< 10 µM | COc1cccc(N(C)c2cccc(Cn3cc(CC(=O)O)c4ccccc43)c2)c1 [Example 527]
< 10 µM | COc1ccc(N(C)c2cccc(Cn3cc(CC(=O)O)c4ccccc43)c2)cc1OC [Example 544]
10 to 50 µM | OC1CCCN(c2ccc3ccn(Cc4csc5ccc(Cl)cc45)c3c2)C1 (centres unmarked) [Example 742]
< 10 µM | O=C(O)Cc1cn(Cc2cccc(Oc3ccc(C(F)(F)F)cc3)c2)c2ccccc12 [Example 483]
> 50 µM | COC(=O)C(C)c1cn(-c2ccc([N+](=O)[O-])cc2C)c2ccc(Br)cc12 (centres unmarked) [Example 390]
10 to 50 µM | O=C(O)Cc1c(C(=O)c2ccc(-c3ccccc3C(F)(F)F)cc2)[nH]c2ccccc12 [Example 269]
10 to 50 µM | COc1ccc(Oc2cccc(Cn3cc(CC(=O)O)c4ccccc43)c2)c(OC)c1 [Example 489]
10 to 50 µM | COc1ccc2c(CC(=O)O)cn(Cc3csc4ccc(Cl)cc34)c2c1 [Example 345]
10 to 50 µM | CCN(Cc1ccccc1)c1ccc(-n2nc(CC(=O)O)c3ccccc32)c(C)c1 [Example 175]
< 10 µM | CSc1ccccc1-c1ccc(Cc2[nH]c3ccccc3c2CC(=O)O)cc1 [Example 288]
10 to 50 µM | Oc1nnc(Cc2cn(Cc3csc4ccc(Cl)cc34)c3ccccc23)[nH]1 [Example 212]
10 to 50 µM | CC(=O)Nc1ccc(-c2ccc(Cc3[nH]c4ccccc4c3CC(=O)O)cc2)cc1 [Example 292]
< 10 µM | CN(c1ccc(C(F)(F)F)cc1)c1cccc(Cn2cc(CC(=O)O)c3ccccc32)c1 [Example 531]
10 to 50 µM | CN(c1cccc(Cn2cc(CC(=O)O)c3ccccc32)c1)c1ccc(C(F)(F)F)cc1C(F)(F)F [Example 545]
10 to 50 µM | O=C(O)Cc1cn(-c2ccc3ccccc3c2)c2ccccc12 [Example 143]
> 50 µM | COC(OC)c1cc([N+](=O)[O-])ccc1-n1cc(CC(=O)O)c2cc(Br)ccc21 [Example 338]
10 to 50 µM | Cc1cc([N+](=O)[O-])ccc1-n1cc(C(C)C(=O)O)c2cc(Br)ccc21 (centres unmarked) [Example 391]
< 10 µM | CN(c1cccc(Cn2cc(CC(=O)O)c3ccccc32)c1)c1c(Cl)cccc1Cl [Example 540]

IC50 | Compound
< 10 µM | CC(C)c1ccc(Cn2c(C(=O)Nc3cccc(S(C)(=O)=O)c3)c(CC(=O)O)c3ccccc32)cc1 [Example 460]
< 10 µM | CN(c1cccc(Cn2cc(CC(=O)O)c3ccccc32)c1)c1cccc(Cl)c1Cl [Example 537]
10 to 50 µM | O=C(O)Cc1cn(Cc2ccc(Cl)s2)c2ccc(Br)cc12 [Example 137]
< 10 µM | O=C(O)Cc1cn(Cc2ccc(Oc3ccccc3Cl)cc2)c2ccccc12 [Example 496]
< 10 µM | O=C(O)Cc1cn(Cc2ccc(Oc3ccccc3F)cc2)c2ccccc12 [Example 493]
< 10 µM | CCN(Cc1ccccc1)c1ccc(-n2cc(CC(=O)O)c3ccccc32)cc1 [Example 166]
10 to 50 µM | NC(=O)c1cccc(-c2cccc(Cc3[nH]c4ccccc4c3CC(=O)O)c2)c1 [Example 301]
< 10 µM | CN(c1cccc(Cl)c1)c1cccc(Cn2cc(CC(=O)O)c3ccccc32)c1 [Example 524]
> 50 µM | CC(C)c1ccc(Cn2c(C(=O)N3CCNC(=O)C3)c(CC(=O)O)c3cc(Br)ccc32)cc1 [Example 429]
< 10 µM | O=C(O)Cc1cn(Cc2ccc(Oc3ccc(F)cc3F)cc2)c2ccccc12 [Example 585]
< 10 µM | O=C(O)Cc1cn(Cc2ccc(Oc3cccc(C(F)(F)F)c3)cc2)c2ccccc12 [Example 503]
< 10 µM | O=C(O)Cc1c(-c2ccccc2)n(Cc2csc3ccc(Cl)cc23)c2ccccc12 [Example 414]
> 50 µM | Cc1ccc2c(c1)c(CC(=O)O)cn2-c1ccc([N+](=O)[O-])cc1C [Example 380]
10 to 50 µM | CN(c1cccc(Cn2cc(CC(=O)O)c3ccccc32)c1)c1c(F)cccc1F [Example 536]
10 to 50 µM | O=C(O)Cc1c(C(=O)c2ccc(-c3ccccc3)cc2)oc2ccccc12 [Example 223]
10 to 50 µM | O=C(O)Cc1cn(Cc2cccc(Br)c2)c2ccc(OCc3ccccc3)cc12 [Example 113]
< 10 µM | O=C(O)Cc1c(C(=O)c2cccc(-c3cc(Cl)cc(Cl)c3)c2)[nH]c2ccccc12 [Example 231]
> 50 µM | CC(C)c1ccc(Cn2c(C(=O)N3CCOCC3)c(CC(=O)O)c3cc(Br)ccc32)cc1 [Example 428]
> 50 µM | CCOC(=O)C(O)c1cn(-c2ccc([N+](=O)[O-])cc2C)c2ccc(Br)cc12 (centres unmarked) [Example 394]
> 50 µM | Cc1cc([N+](=O)[O-])ccc1-n1cc(C=O)c2cc(OCc3ccccc3)ncc21 [Example 327]
< 10 µM | O=C(O)Cc1c(Cc2cccc(-c3ccc(Cl)c(Cl)c3)c2)oc2ccccc12 [Example 309]
10 to 50 µM | Cc1ccccc1-c1ccc(Cc2[nH]c3ccccc3c2CC(=O)O)cc1 [Example 283]
10 to 50 µM | O=C(O)Cc1c(Cc2ccc(-c3ccccc3)cc2)n(Cc2ccccc2)c2ccccc12 [Example 277]
10 to 50 µM | Cc1cc([N+](=O)[O-])ccc1-n1cc(CCC(=O)O)c2cc(Br)ccc21 [Example 386]
< 10 µM | Cc1cc(-c2ccc(Cc3[nH]c4ccccc4c3CC(=O)O)cc2)ccc1Cl [Example 281]

Same assay, conditions: IC50 Activity, HCV NS3 helicase; tables do not say whether Example A or Example B assay

Compound | IC50
CCOC(=O)C(O)(c1cn(-c2ccc([N+](=O)[O-])cc2C)c2ccc(Br)cc12)C(F)(F)F (centres unmarked) [Example 389] | > 50 µM

Same assay, conditions: Table 21, compounds made using Scheme 28; read-out: IC50 Activity

IC50 | Compound
< 10 µM | CN(c1ccc(Cn2cc(CC(=O)O)c3ccccc32)cc1)c1cccc(F)c1 [Example 557]
10 to 50 µM | COc1ccccc1N(C)c1ccc(Cn2cc(CC(=O)O)c3ccccc32)cc1 [Example 562]
10 to 50 µM | CN(c1ccc(F)cc1)c1ccc(Cn2cc(CC(=O)O)c3ccccc32)cc1 [Example 558]

Same assay, conditions: Table 23, compounds made using Scheme 30; read-out: IC50 Activity

IC50 | Compound
< 10 µM | O=C(O)Cc1cn(Cc2cccc(Oc3ccc(Cl)cc3Cl)c2)c2ccccc12 [Example 596]

Same assay, conditions: Table 31, compounds made using Schemes 38-45; read-out: IC50 Activity

IC50 | Compound
< 10 µM | Cc1ccccc1-c1ccc2c(CC(=O)O)cn(Cc3csc4ccc(Cl)cc34)c2c1 [Example 626]
10 to 50 µM | Nc1cc(N)nc(-c2ccc3c(CC(=O)O)cn(Cc4csc5ccc(Cl)cc45)c3c2)n1 [Example 635]
> 50 µM | Nn1cc(-c2ccc3c(CC(=O)O)cn(Cc4csc5ccc(Cl)cc45)c3c2)c(=O)n(N)c1=O [Example 651]
< 10 µM | COC(=O)c1ccc(N)cc1-c1ccc2c(CC(=O)O)cn(Cc3csc4ccc(Cl)cc34)c2c1 [Example 642]

Same assay, conditions: Table 32, compounds made using Schemes 46-49; read-out: IC50 Activity

IC50 | Compound
10 to 50 µM | CC(C)(C)OC(=O)Nc1nnc(-c2ccc3c(CC(=O)O)cn(Cc4csc5ccc(Cl)cc45)c3c2)s1 [Example 659]
< 10 µM | CC(C)(C)OC(=O)Nc1nnc(-c2ccc3c(CC(=O)O)cn(Cc4csc5ccc(Cl)cc45)c3c2)s1 [Example 658]

Same assay, conditions: Table 33, compounds made using Scheme 50; read-out: IC50 Activity

IC50 | Compound
10 to 50 µM | O=C(O)Cc1cn(Cc2csc3ccc(Cl)cc23)c2cc(-c3ccc4nc[nH]c4c3)ccc12 [Example 668]

Same assay, conditions: Table 34, compounds made using Schemes 51-52; read-out: IC50 Activity

IC50 | Compound
< 10 µM | Nc1cc(N)cc(-c2ccc3c(CC(=O)NOCc4ccccc4)cn(Cc4csc5ccc(Cl)cc45)c3c2)c1 [Example 680]
< 10 µM | CC(C)c1ccc(CC(C(=O)O)c2cn(Cc3ccc(C(C)C)cc3)c3ccc(Br)cc23)cc1 (centres unmarked) [Example 685]

Same assay, conditions: Table 35, compounds made using Scheme 53; read-out: IC50 Activity

IC50 | Compound
10 to 50 µM | Nc1cc(N)cc(-c2ccc3c(CC(=O)O)cn(Cc4cccc5sc(O)nc45)c3c2)c1 [Example 708]
10 to 50 µM | Cc1nn(-c2ccccc2)nc1Cn1cc(CC(=O)O)c2ccc(-c3cc(N)cc(N)c3)cc21 [Example 706]

Same assay, conditions: Table 36, compounds made using Scheme 54; read-out: IC50 Activity

IC50 | Compound
> 50 µM | CCOC(=O)Cc1cn(Cc2c(CC)sc3ccc(Cl)cc23)c2cc(-c3cc([N+](=O)[O-])cc([N+](=O)[O-])c3)ccc12 [Example 720]
> 50 µM | O=C(O)Cc1cn(Cc2csc3c(Cl)c(Cl)ccc23)c2cc(Br)ccc12 [Example 780]
> 50 µM | Nc1cc(N)cc(-c2ccc3c(CC(=O)O)cn(Cc4nc5ccccc5s4)c3c2)c1 [Example 735]
> 50 µM | Cc1sc2ccc(Cl)cc2c1Cn1cc(CC(=O)O)c2ccccc21 [Example 790]
10 to 50 µM | CCOC(=O)Cc1cn(Cc2csc3ccc(OC(F)(F)F)cc23)c2cc(-c3cc(N)cc(N)c3)ccc12 [Example 718]

Same assay, conditions: Table 37, compounds made using Scheme 55; read-out: IC50 Activity

IC50 | Compound
10 to 50 µM | CC(=O)Nc1ccccc1-c1ccc2c(CC(=O)O)cn(Cc3csc4ccc(Cl)cc34)c2c1 [Example 768]

Same assay, conditions: Table 38, compounds made using Scheme 56, Scheme 57 and Scheme 61; read-out: IC50 Activity

IC50 | Compound
< 10 µM | CCN(C)c1cc(Cl)cc2c(Cn3cc(CC(=O)O)c4ccc(-c5cc(N)cc(N)c5)cc43)csc12 [Example 732]
